Results from patent US7026317B2, “Pyrazolotriazines as CRF antagonists” (Bristol-Myers Squibb Pharma Company, priority 1999, dated 2006).

Compound | melting point [°C]
CCc1nn2c(-c3ccc(Cl)cc3Cl)nc(C)nc2c1C(CC)CC [compound 1, 4-(2,4-dichlorophenyl)-8-(3-pentyl)-7-ethyl-2-methyl-pyrazolo[1,5-a]-1,3,5-triazine] | 91 to 93
CCc1nn2c(-c3ccc(Cl)cc3Cl)nc(C)nc2c1N(CC)CC [compound 3, 4-(2,4-dichlorophenyl)-8-diethylamino-7-ethyl-2-methyl-pyrazolo[1,5-a]-1,3,5-triazine] | 98 to 99
